# Source: the supplement of paper PMC10307832
# Assays:
# Experiment in all cases: relative viability (nuclei count vs DMSO), 5 days (fraction); higher = more cells survive
# LOU-NH91 = tested on: LOU-NH91
# Procedure, shortened: (§1)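 Lung cancer cell lines in 1536-well plates were dosed by pin tool the day after seeding, either with one drug alone or with a fixed anchor-drug dose plus five library-drug doses (not always all listed) in √10 steps. After 5 days, cells were fixed and their nuclei stained in one step (final 0.05% Triton X-100, 1% formaldehyde, 1 ug/ml Hoechst), then counted on 4× images. Relative viability is the nuclei count in treated wells divided by that in vehicle wells. Values are medians of duplicate plates.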
# EPLC-272H = tested on: EPLC-272H
# Procedure, shortened: as §1
# UMC-11 = tested on: UMC-11
# Procedure, shortened: as §1
# H3255 = tested on: H3255
# Procedure, shortened: as §1
# NCI-H2405 = tested on: NCI-H2405
# Procedure, shortened: as §1
# NCI-H1975 = tested on: NCI-H1975
# Procedure, shortened: as §1
# NCI-H1355 = tested on: NCI-H1355
# Procedure, shortened: as §1
# 201T = tested on: 201T
# Procedure, shortened: as §1
# NCI-H1792 = tested on: NCI-H1792
# Procedure, shortened: as §1
# NCI-H1651 = tested on: NCI-H1651
# Procedure, shortened: as §1
# NCI-H1666 = tested on: NCI-H1666
# Procedure, shortened: as §1
# LCLC-103H = tested on: LCLC-103H
# Procedure, shortened: as §1
# SK-LU-1 = tested on: SK-LU-1
# Procedure, shortened: as §1
# NCI-H2023 = tested on: NCI-H2023
# Procedure, shortened: as §1
# NCI-H441 = tested on: NCI-H441
# Procedure, shortened: as §1
# NCI-H1734 = tested on: NCI-H1734
# Procedure, shortened: as §1
# NCI-H647 = tested on: NCI-H647
# Procedure, shortened: as §1
# RERF-LC-KJ = tested on: RERF-LC-KJ
# Procedure, shortened: as §1
# NCI-H1915 = tested on: NCI-H1915
# Procedure, shortened: as §1
compound,measurement,setting,value
COCC1(CO)C(=O)C2CCN1CC2 (stereo not drawn) [PRIMA-1MET] + CC(C)C[C@H](NC(=O)[C@H](Cc1ccccc1)NC(=O)c1cnccn1)B(O)O [Bortezomib] (partner 0.002 µM),relative viability,LOU-NH91; first compound 0.2 µM,0.452
same,relative viability,LOU-NH91; first compound 0.6325 µM,0.403
same,relative viability,LOU-NH91; first compound 2 µM,0.541
same,relative viability,LOU-NH91; first compound 6.325 µM,0.423
same,relative viability,LOU-NH91; first compound 20 µM,0.485
same,relative viability,EPLC-272H; first compound 0.2 µM,1.03
same,relative viability,EPLC-272H; first compound 0.6325 µM,0.847
same,relative viability,EPLC-272H; first compound 2 µM,0.966
same,relative viability,EPLC-272H; first compound 6.325 µM,1.2
same,relative viability,EPLC-272H; first compound 20 µM,0.686
same,relative viability,UMC-11; first compound 0.2 µM,0.778
same,relative viability,UMC-11; first compound 0.6325 µM,0.407
same,relative viability,UMC-11; first compound 2 µM,0.666
same,relative viability,UMC-11; first compound 6.325 µM,0.771
same,relative viability,UMC-11; first compound 20 µM,0.777
same,relative viability,H3255; first compound 0.2 µM,0.814
same,relative viability,H3255; first compound 0.6325 µM,0.461
same,relative viability,H3255; first compound 2 µM,0.771
same,relative viability,H3255; first compound 6.325 µM,0.815
same,relative viability,H3255; first compound 20 µM,0.69
same,relative viability,NCI-H2405; first compound 0.2 µM,0.716
same,relative viability,NCI-H2405; first compound 0.6325 µM,0.786
same,relative viability,NCI-H2405; first compound 6.325 µM,0.92
same,relative viability,NCI-H2405; first compound 20 µM,0.952
same,relative viability,NCI-H1975; first compound 0.2 µM,0.457
same,relative viability,NCI-H1975; first compound 0.6325 µM,0.408
same,relative viability,NCI-H1975; first compound 2 µM,0.399
same,relative viability,NCI-H1975; first compound 6.325 µM,0.4
same,relative viability,NCI-H1975; first compound 20 µM,0.419
same,relative viability,NCI-H1355; first compound 0.2 µM,1.26
same,relative viability,NCI-H1355; first compound 0.6325 µM,1.12
same,relative viability,NCI-H1355; first compound 2 µM,1.21
same,relative viability,NCI-H1355; first compound 6.325 µM,1.31
same,relative viability,NCI-H1355; first compound 20 µM,1.18
same,relative viability,201T; first compound 0.2 µM,1.18
same,relative viability,201T; first compound 0.6325 µM,1.07
same,relative viability,201T; first compound 2 µM,1.07
same,relative viability,201T; first compound 6.325 µM,1.15
same,relative viability,201T; first compound 20 µM,1.08
same,relative viability,NCI-H1792; first compound 0.2 µM,0.959
same,relative viability,NCI-H1792; first compound 0.6325 µM,0.851
same,relative viability,NCI-H1792; first compound 2 µM,0.937
same,relative viability,NCI-H1792; first compound 6.325 µM,1
same,relative viability,NCI-H1792; first compound 20 µM,0.939
same,relative viability,NCI-H1651; first compound 0.2 µM,0.929
same,relative viability,NCI-H1651; first compound 0.6325 µM,0.847
same,relative viability,NCI-H1651; first compound 2 µM,0.874
same,relative viability,NCI-H1651; first compound 6.325 µM,0.975
same,relative viability,NCI-H1651; first compound 20 µM,0.844
same,relative viability,NCI-H1666; first compound 0.2 µM,0.836
same,relative viability,NCI-H1666; first compound 0.6325 µM,0.777
same,relative viability,NCI-H1666; first compound 2 µM,0.816
same,relative viability,NCI-H1666; first compound 6.325 µM,0.983
same,relative viability,NCI-H1666; first compound 20 µM,0.305
same,relative viability,LCLC-103H; first compound 0.2 µM,1.35
same,relative viability,LCLC-103H; first compound 0.6325 µM,1.03
same,relative viability,LCLC-103H; first compound 2 µM,1.04
same,relative viability,LCLC-103H; first compound 6.325 µM,0.934
same,relative viability,LCLC-103H; first compound 20 µM,1
same,relative viability,SK-LU-1; first compound 0.2 µM,1.42
same,relative viability,SK-LU-1; first compound 0.6325 µM,1.07
same,relative viability,SK-LU-1; first compound 6.325 µM,1.2
same,relative viability,SK-LU-1; first compound 20 µM,0.617
same,relative viability,NCI-H2023; first compound 0.2 µM,1.17
same,relative viability,NCI-H2023; first compound 0.6325 µM,0.877
same,relative viability,NCI-H2023; first compound 2 µM,0.893
same,relative viability,NCI-H2023; first compound 6.325 µM,0.951
same,relative viability,NCI-H2023; first compound 20 µM,1.02
same,relative viability,NCI-H441; first compound 0.2 µM,0.387
same,relative viability,NCI-H441; first compound 0.6325 µM,0.407
same,relative viability,NCI-H441; first compound 2 µM,0.347
same,relative viability,NCI-H441; first compound 6.325 µM,0.404
same,relative viability,NCI-H441; first compound 20 µM,0.107
same,relative viability,NCI-H1734; first compound 0.2 µM,1.16
same,relative viability,NCI-H1734; first compound 0.6325 µM,0.75
same,relative viability,NCI-H1734; first compound 2 µM,0.812
same,relative viability,NCI-H1734; first compound 6.325 µM,0.967
same,relative viability,NCI-H1734; first compound 20 µM,0.224
same,relative viability,NCI-H647; first compound 0.2 µM,1.19
same,relative viability,NCI-H647; first compound 0.6325 µM,1.06
same,relative viability,NCI-H647; first compound 2 µM,0.876
same,relative viability,NCI-H647; first compound 6.325 µM,1.17
same,relative viability,NCI-H647; first compound 20 µM,0.686
same,relative viability,RERF-LC-KJ; first compound 0.2 µM,1.35
same,relative viability,RERF-LC-KJ; first compound 0.6325 µM,1.04
same,relative viability,RERF-LC-KJ; first compound 2 µM,1.13
same,relative viability,RERF-LC-KJ; first compound 6.325 µM,1.15
same,relative viability,RERF-LC-KJ; first compound 20 µM,1.04
same,relative viability,NCI-H1915; first compound 0.2 µM,1.07
same,relative viability,NCI-H1915; first compound 0.6325 µM,0.695
same,relative viability,NCI-H1915; first compound 2 µM,0.918
same,relative viability,NCI-H1915; first compound 6.325 µM,0.764
same,relative viability,NCI-H1915; first compound 20 µM,0.956
